Test results from patent US11725011B2, “Bicyclic urea kinase inhibitors and uses thereof” (The Broad Institute, Inc., priority 2016, dated 2023).

How the values were obtained:
Experiment in all cases: KINOMEscan
Assay type in all cases: binding
Details in all cases: 1 uM
LCK = LCK (Homo sapiens (Human), UniProt P06239)
MYO3B = MYO3B (Homo sapiens (Human), UniProt Q8WXR4)
JNK3 = JNK3 (Homo sapiens (Human), UniProt P53779)
S6K1 = S6K1 (Homo sapiens (Human), UniProt P23443)
BRSK2 = BRSK2 (Homo sapiens (Human), UniProt Q8IWQ3)
[1] = molecular target: JAK2 (JH1domain-catalytic) (Homo sapiens (Human), UniProt O60674)
Chain of JAK2 (JH1domain-catalytic) (O60674 849-1124): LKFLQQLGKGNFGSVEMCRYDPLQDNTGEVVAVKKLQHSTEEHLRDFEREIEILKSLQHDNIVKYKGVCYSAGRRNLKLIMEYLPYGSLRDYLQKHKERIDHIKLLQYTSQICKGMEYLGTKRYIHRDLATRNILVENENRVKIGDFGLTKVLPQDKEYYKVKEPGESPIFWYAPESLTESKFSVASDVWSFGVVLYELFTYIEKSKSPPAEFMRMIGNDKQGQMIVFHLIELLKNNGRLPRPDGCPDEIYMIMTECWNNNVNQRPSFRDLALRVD

MET = MET (Homo sapiens (Human), UniProt P08581)
CDC2L1 = CDC2L1 (Homo sapiens (Human), UniProt P21127)
MARK4 = MARK4 (Homo sapiens (Human), UniProt Q96L34)
PDGFRA = PDGFRA (Homo sapiens (Human), UniProt P16234)
FES = FES (Homo sapiens (Human), UniProt P07332)
PAK4 = PAK4 (Homo sapiens (Human), UniProt O96013)
Chain of PAK4 (O96013 whole entry): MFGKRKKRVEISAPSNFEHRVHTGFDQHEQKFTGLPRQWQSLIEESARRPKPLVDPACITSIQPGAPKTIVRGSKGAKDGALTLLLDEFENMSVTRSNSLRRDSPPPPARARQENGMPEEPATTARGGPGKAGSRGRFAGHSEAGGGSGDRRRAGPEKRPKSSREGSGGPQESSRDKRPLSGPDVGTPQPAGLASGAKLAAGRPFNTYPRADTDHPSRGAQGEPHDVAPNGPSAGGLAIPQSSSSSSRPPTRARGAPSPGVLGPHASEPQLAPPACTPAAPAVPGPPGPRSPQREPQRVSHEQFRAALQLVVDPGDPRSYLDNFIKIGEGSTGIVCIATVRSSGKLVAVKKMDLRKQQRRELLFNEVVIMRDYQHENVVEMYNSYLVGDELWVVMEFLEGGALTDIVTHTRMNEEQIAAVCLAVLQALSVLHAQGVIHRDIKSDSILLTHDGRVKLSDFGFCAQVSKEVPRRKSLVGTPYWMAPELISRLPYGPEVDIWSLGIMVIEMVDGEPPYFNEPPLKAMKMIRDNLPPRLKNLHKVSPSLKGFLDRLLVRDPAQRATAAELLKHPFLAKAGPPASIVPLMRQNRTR

WEE1 = WEE1 (Homo sapiens (Human), UniProt P30291)
MST3 = MST3 (Homo sapiens (Human), UniProt Q9Y6E0)
GSK3B = GSK3B (Homo sapiens (Human), UniProt P49841)
Chain of GSK3B (P49841 whole entry): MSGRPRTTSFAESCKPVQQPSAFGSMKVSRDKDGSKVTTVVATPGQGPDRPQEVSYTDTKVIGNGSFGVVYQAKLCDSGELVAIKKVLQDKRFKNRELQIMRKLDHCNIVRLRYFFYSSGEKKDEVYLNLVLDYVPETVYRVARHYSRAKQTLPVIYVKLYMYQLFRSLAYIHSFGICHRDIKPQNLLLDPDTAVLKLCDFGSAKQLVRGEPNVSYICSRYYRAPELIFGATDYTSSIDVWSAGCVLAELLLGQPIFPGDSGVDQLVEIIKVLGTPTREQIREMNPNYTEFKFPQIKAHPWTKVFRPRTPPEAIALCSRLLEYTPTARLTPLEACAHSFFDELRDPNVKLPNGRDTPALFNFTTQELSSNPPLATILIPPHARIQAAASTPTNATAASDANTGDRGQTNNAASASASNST

VEGFR2 = VEGFR2 (Homo sapiens (Human), UniProt P35968)
MAP3K2 = MAP3K2 (Homo sapiens (Human), UniProt Q9Y2U5)
PDPK1 = PDPK1 (Homo sapiens (Human), UniProt O15530)
EGFR (L858R, T790M) = EGFR (L858R, T790M) (Homo sapiens (Human), UniProt P00533, L858R/T790M)
DLK = DLK (Homo sapiens (Human), UniProt Q12852)
DDR1 = DDR1 (Homo sapiens (Human), UniProt Q08345)
BMPR1B = BMPR1B (Homo sapiens (Human), UniProt O00238)
PFTK1 = PFTK1 (Homo sapiens (Human), UniProt O94921)
SGK = SGK (Homo sapiens (Human), UniProt O00141)
Chain of SGK (O00141 whole entry): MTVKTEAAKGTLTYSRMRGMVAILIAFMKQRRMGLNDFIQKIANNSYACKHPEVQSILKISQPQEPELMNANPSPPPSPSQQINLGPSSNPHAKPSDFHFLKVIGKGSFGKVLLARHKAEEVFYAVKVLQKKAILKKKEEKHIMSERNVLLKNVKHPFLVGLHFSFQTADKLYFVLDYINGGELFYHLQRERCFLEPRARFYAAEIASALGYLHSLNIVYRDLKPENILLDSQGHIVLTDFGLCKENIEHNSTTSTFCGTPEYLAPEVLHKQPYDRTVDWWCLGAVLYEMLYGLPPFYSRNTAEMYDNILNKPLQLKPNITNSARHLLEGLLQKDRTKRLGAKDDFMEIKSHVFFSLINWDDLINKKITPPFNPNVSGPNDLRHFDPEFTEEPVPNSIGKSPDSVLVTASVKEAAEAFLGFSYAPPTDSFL

[2] = molecular target: ABL1 (M351T)-phosphorylated (Homo sapiens (Human), UniProt P00519, M351T)
MYO3A = MYO3A (Homo sapiens (Human), UniProt Q8NEV4)
DAPK3 = DAPK3 (Homo sapiens (Human), UniProt O43293)
[3] = molecular target: EGFR (L747-E749del, A750P) (Homo sapiens (Human), UniProt P00533, A750P/DEL747-749)
MARK3 = MARK3 (Homo sapiens (Human), UniProt P27448)
Chain of MARK3 (P27448 whole entry): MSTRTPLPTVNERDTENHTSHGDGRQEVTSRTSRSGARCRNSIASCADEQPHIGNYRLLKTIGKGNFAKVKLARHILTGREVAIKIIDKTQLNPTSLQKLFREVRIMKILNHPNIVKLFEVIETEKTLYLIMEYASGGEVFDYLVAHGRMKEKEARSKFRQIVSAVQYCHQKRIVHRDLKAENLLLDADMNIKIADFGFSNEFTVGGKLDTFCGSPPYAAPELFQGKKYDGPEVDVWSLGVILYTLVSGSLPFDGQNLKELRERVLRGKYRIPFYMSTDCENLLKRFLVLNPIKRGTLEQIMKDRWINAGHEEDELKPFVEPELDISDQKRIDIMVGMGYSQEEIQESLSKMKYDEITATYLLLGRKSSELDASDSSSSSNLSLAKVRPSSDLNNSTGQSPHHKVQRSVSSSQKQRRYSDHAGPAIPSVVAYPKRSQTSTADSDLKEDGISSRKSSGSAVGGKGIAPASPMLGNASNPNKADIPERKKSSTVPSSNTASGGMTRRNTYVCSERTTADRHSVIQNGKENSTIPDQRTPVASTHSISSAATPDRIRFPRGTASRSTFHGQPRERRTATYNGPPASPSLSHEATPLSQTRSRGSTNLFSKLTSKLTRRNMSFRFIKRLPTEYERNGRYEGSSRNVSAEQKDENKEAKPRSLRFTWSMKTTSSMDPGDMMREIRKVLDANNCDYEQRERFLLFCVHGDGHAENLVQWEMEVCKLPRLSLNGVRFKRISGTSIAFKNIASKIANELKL

MKK7 = MKK7 (Homo sapiens (Human), UniProt O14733)
RIOK2 = RIOK2 (Homo sapiens (Human), UniProt Q9BVS4)
MRCKA = MRCKA (Homo sapiens (Human), UniProt Q5VT25)
PLK3 = PLK3 (Homo sapiens (Human), UniProt Q9H4B4)
MINK = MINK (Homo sapiens (Human), UniProt Q8N4C8)
BRK = BRK (Homo sapiens (Human), UniProt Q13882)
ARK5 = ARK5 (Homo sapiens (Human), UniProt O60285)
ERN1 = ERN1 (Homo sapiens (Human), UniProt O75460)
Chain of ERN1 (O75460 19-977): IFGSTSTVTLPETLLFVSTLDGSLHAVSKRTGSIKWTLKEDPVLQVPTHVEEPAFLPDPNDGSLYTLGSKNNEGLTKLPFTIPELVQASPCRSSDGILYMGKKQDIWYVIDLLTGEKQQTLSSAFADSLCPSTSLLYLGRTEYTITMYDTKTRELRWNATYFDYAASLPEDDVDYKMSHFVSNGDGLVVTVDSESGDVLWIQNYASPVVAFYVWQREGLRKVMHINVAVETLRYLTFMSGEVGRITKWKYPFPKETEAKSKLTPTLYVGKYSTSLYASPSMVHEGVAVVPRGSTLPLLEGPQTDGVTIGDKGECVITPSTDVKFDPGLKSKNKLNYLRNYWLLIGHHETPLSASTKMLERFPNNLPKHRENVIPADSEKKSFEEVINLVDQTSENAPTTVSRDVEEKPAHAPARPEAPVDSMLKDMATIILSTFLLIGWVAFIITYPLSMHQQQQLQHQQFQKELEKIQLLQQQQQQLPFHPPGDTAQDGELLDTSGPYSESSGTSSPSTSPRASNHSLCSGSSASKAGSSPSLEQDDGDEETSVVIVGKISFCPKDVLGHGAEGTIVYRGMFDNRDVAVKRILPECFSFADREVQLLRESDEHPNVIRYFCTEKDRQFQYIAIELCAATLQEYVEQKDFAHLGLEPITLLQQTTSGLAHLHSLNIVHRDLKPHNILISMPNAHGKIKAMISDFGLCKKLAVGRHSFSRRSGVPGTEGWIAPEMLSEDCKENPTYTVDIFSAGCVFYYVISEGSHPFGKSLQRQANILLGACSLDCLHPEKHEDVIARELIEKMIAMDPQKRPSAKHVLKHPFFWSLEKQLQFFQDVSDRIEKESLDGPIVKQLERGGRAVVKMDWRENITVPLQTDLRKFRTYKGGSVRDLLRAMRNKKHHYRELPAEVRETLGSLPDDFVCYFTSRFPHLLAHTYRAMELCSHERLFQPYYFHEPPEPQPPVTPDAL

HIPK4 = HIPK4 (Homo sapiens (Human), UniProt Q8NE63)
ACVR2A = ACVR2A (Homo sapiens (Human), UniProt P27037)
Chain of ACVR2A (P27037 20-513): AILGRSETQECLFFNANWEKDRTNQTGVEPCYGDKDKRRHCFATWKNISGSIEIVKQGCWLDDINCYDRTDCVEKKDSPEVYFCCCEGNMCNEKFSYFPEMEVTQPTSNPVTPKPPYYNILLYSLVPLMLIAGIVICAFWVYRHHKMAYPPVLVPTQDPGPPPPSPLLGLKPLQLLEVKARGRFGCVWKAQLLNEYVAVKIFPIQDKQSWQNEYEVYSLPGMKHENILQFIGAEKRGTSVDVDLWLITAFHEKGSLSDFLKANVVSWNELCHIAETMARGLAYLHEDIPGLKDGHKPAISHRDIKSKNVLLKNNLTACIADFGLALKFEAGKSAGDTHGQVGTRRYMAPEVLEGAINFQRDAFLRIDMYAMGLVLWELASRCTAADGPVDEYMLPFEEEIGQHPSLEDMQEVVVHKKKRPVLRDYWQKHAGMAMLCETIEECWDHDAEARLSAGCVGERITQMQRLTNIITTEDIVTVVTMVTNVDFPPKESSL

EPHA4 = EPHA4 (Homo sapiens (Human), UniProt P54764)
MAP3K15 = MAP3K15 (Homo sapiens (Human), UniProt Q6ZN16)

Chain of LCK (P06239 whole entry): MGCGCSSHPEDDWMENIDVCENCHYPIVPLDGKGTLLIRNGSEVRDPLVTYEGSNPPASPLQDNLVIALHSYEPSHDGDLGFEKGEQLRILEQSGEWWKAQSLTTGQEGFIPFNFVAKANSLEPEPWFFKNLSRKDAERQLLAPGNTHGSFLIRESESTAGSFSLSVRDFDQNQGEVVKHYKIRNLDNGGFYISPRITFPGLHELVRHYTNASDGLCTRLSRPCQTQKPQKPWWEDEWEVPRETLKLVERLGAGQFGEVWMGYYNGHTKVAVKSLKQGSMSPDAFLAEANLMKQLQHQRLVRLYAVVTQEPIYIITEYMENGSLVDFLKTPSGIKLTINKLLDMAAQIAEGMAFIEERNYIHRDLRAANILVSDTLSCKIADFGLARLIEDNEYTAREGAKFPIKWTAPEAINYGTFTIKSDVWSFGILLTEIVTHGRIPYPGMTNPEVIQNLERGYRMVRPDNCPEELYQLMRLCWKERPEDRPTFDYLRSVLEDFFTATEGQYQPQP
Chain of S6K1 (P23443 whole entry): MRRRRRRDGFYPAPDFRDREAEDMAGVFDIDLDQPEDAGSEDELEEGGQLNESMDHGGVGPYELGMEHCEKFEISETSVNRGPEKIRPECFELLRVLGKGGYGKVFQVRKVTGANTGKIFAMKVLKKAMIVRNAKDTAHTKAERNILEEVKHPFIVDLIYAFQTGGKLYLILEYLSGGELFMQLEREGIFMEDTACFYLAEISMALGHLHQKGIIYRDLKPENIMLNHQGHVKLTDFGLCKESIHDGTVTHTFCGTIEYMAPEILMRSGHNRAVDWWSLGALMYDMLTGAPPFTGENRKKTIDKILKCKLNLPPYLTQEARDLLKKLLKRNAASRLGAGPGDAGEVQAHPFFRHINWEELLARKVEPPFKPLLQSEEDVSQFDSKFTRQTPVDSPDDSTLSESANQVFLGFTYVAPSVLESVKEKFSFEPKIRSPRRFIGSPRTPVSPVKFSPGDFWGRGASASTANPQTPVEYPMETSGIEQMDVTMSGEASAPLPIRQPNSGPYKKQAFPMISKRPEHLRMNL

COc1ccc(N2C(=O)N(c3c(C)cccc3C)Cc3cnc(Nc4ccc(N5CCN(C)CC5)cc4)nc32)c(OC)c1 [HG-11-136-01]
KINOMEscan LCK (LCK): 0.05
KINOMEscan MYO3B (MYO3B): 29
KINOMEscan JNK3 (JNK3): 32
KINOMEscan S6K1 (S6K1): 72
KINOMEscan BRSK2 (BRSK2): 91
KINOMEscan JAK2 (JH1domain-catalytic) [1]: 0.75
KINOMEscan MET (MET): 66
KINOMEscan CDC2L1 (CDC2L1): 79
KINOMEscan MARK4 (MARK4): 32
KINOMEscan PDGFRA (PDGFRA): 0.5
KINOMEscan FES (FES): 0
KINOMEscan PAK4 (PAK4): 34
KINOMEscan WEE1 (WEE1): 69
KINOMEscan MST3 (MST3): 4.6
KINOMEscan GSK3B (GSK3B): 100
KINOMEscan VEGFR2 (VEGFR2): 1.8
KINOMEscan MAP3K2 (MAP3K2): 0.05
KINOMEscan PDPK1 (PDPK1): 100
KINOMEscan EGFR (L858R, T790M) (EGFR (L858R, T790M)): 1.7
KINOMEscan DLK (DLK): 6.6
KINOMEscan DDR1 (DDR1): 0.3
KINOMEscan BMPR1B (BMPR1B): 0
KINOMEscan PFTK1 (PFTK1): 100
KINOMEscan SGK (SGK): 63
KINOMEscan ABL1 (M351T)-phosphorylated [2]: 0.55
KINOMEscan MYO3A (MYO3A): 40
KINOMEscan DAPK3 (DAPK3): 63
KINOMEscan EGFR (L747-E749del, A750P) [3]: 0.35
KINOMEscan MARK3 (MARK3): 1.6
KINOMEscan MKK7 (MKK7): 80
KINOMEscan RIOK2 (RIOK2): 87
KINOMEscan MRCKA (MRCKA): 99
KINOMEscan PLK3 (PLK3): 31
KINOMEscan MINK (MINK): 2.8
KINOMEscan BRK (BRK): 0.45
KINOMEscan ARK5 (ARK5): 8.2
KINOMEscan ERN1 (ERN1): 13
KINOMEscan HIPK4 (HIPK4): 51
KINOMEscan ACVR2A (ACVR2A): 5
KINOMEscan EPHA4 (EPHA4): 0
KINOMEscan MAP3K15 (MAP3K15): 40
